≈ marks a conversion by molar mass, not a printed value. Read-outs that look alike come from different tables or passages of the source.
Experiments:
HEK293 cells [1] = assay: Cytotoxicity (CC50) assay by CO-ADD; type: cell-based, human; settings: Table 1; cytotoxicity on HEK293 cells, tested at ≤32 µg/mL
[2] = Cytotoxicity (CC50) assay by CO-ADD; type: cell-based, human; settings: human, HEK293 cells (ATCC CRL-1573); Table S1; HEK293 cells
E. faecalis ATCC 29212 [3] = assay: Primary MIC assay, E. faecalis ATCC 29212; type: cell-based, Enterococcus faecalis; settings: Table 1
How it was run: (§1)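 Tested per Clinical and Laboratory Standards Institute guidance. Controls included vancomycin, colistin, fluconazole and tamoxifen; vancomycin QC ranges were verified.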

A. baumannii ATCC 19606 = assay: CO-ADD MIC assay, A. baumannii ATCC 19606; type: cell-based; settings: Acinetobacter baumannii, ATCC19606, Table S1
How it was run: (§2)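 CO-ADD whole-cell growth-inhibition MIC screening of the peptidomimetics against MRSA and Gram-negative strains.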

S. aureus NCTC 10442 [4] = assay: Primary MIC assay, S. aureus NCTC 10442 (MRSA); type: cell-based; settings: Staphylococcus aureus; Table 1; MRSA; read-out: MIC S. aureus NCTC 10442
How it was run: as §1

S. aureus ATCC 29213 [5] = assay: Primary MIC assay, S. aureus ATCC 29213; type: cell-based; settings: Staphylococcus aureus, ATCC29213; Table 1; read-out: MIC S. aureus ATCC 29213
How it was run: as §1

C. difficile 132 (RT027) [6] = assay: Primary MIC assay, C. difficile 132 (RT027); type: cell-based, Clostridioides difficile; settings: Clostridioides difficile; Table 1; read-out: MIC C. difficile 132 (RT027)
How it was run: as §1

P. aeruginosa ATCC 27853 = assay: CO-ADD MIC assay, P. aeruginosa ATCC 27853; type: cell-based; settings: Pseudomonas aeruginosa, ATCC27853, Table S1
How it was run: as §2

E. coli ATCC 25922 [7] = assay: Primary MIC assay, E. coli ATCC 25922; type: cell-based; settings: Escherichia coli, ATCC25922; Table 1; read-out: MIC E. coli ATCC 25922
human erythrocytes = assay: Hemolysis assay, HC50 determination; type: cell-based
Protocol: Hemolysis assay (human erythrocytes)–HC50 determination. These were performed as described previously.

E. coli ATCC 25922 [8] = assay: CO-ADD MIC assay, E. coli ATCC 25922; type: cell-based
How it was run: as §2

C. difficile ATCC 700057 = assay: Primary MIC assay, C. difficile ATCC 700057; type: cell-based, Clostridioides difficile; settings: Clostridioides difficile, ATCC700057; Table 1; read-out: MIC C. difficile ATCC 700057
How it was run: as §1

S. pneumoniae ATCC 49619 [9] = assay: Primary MIC assay, S. pneumoniae ATCC 49619; type: cell-based, Streptococcus pneumoniae; settings: Table 1
How it was run: as §1

[10] = test system: K. pneumoniae ATCC 700603; assay: CO-ADD MIC assay, K. pneumoniae ATCC 700603; type: cell-based; settings: Klebsiella pneumoniae, ATCC700603, Table S1, multi-drug resistant
How it was run: as §2

S. aureus ATCC 43300 [11] = assay: CO-ADD MIC assay, S. aureus ATCC 43300 (MRSA); type: cell-based; settings: Table S1, MRSA, CO-ADD
How it was run: as §2

C. albicans ATCC 90028 = assay: CO-ADD MIC assay, C. albicans ATCC 90028; type: cell-based
How it was run: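 Whole-cell growth inhibition (MIC) screening run by CO-ADD. Fluconazole served as antifungal positive control.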

[12] = parameters: method as in PMID 30901686; settings: cited from earlier work; for appearance in the solubility assay: Figure 1
E. coli ATCC 25922 [13] = test system: E. coli ATCC 25922; parameters: method as in ref 30 (1), 31 (2, 4), 19 (3); settings: Table 2; ref 30 (1), 31 (2, 4), 19 (3); cited from earlier work
C. difficile [14] = settings: Figure 1; cited from earlier work
E. faecalis ATCC 29212 [15] = test system: E. faecalis ATCC 29212; parameters: method as in ref 30 (1), 31 (2, 4), 19 (3); settings: Table 2; ref 30 (1), 31 (2, 4), 19 (3); cited from earlier work
S. aureus ATCC 29213 [16] = test system: S. aureus ATCC 29213; parameters: method as in ref 30 (1), 31 (2, 4), 19 (3); settings: Table 2; ref 30 (1), 31 (2, 4), 19 (3); cited from earlier work
[17] = test system: C. difficile strain M7404 (RT027); parameters: method as in ref 30 (compound 1), 19 (compound 3); settings: Table 2 footnote g; ref 30 (compound 1), 19 (compound 3); cited from earlier work
[18] = test system: C. difficile strain R20291; parameters: method as in ref 30 (compound 1), 19 (compound 3); settings: Table 2 footnote h; ref 30 (compound 1), 19 (compound 3); cited from earlier work
S. pneumoniae ATCC 49619 [19] = test system: S. pneumoniae ATCC 49619; parameters: method as in ref 30 (1), 31 (2, 4), 19 (3); settings: Table 2; ref 30 (1), 31 (2, 4), 19 (3); cited from earlier work
S. aureus ATCC 43300 [20] = test system: S. aureus ATCC 43300; parameters: method as in PMID 30831407; settings: Table 2; MRSA; cited from earlier work
HEK293 cells [21] = test system: HEK293 cells; parameters: method as in PMID 30831407; settings: Table 2; cited from earlier work
C. difficile 132 (RT027) [22] = test system: C. difficile 132 (RT027); parameters: method as in PMID 30831407; settings: Table 2; cited from earlier work
S. aureus NCTC 10442 [23] = test system: S. aureus NCTC 10442; parameters: method as in ref 31 (2, 4), 19 (3); settings: Table 2; MRSA; ref 31 (2, 4), 19 (3); cited from earlier work
C. difficile [24] = test system: C. difficile; parameters: method as in PMID 30901686; settings: murine CDI model; 10% DMSO group 0%; cited from earlier work
sheep erythrocytes = settings: cited from earlier work

## CC(C)CCc1cn(-c2c(OCC(=O)N[C@H](CCCNC(=N)N)Cn3cc(C4CCCCC4)nn3)ccc3ccccc23)nn1 [Compound 21]
HEK293 cells [1]
  CC50: >32 µg/mL
[2]
  CC50: > 32 µg/mL
E. faecalis ATCC 29212 [3]; Enterococcus faecalis, ATCC29212, read-out: MIC E. faecalis ATCC 29212
  MIC: 16 µg/mL (≈ 26 µM)
E. faecalis ATCC 29212 [3]
  MIC E. faecalis ATCC 29212: 4 µg/mL (≈ 6.51 µM)
A. baumannii ATCC 19606
  MIC: > 32 µg/mL
S. aureus NCTC 10442 [4]
  MIC: 8 µg/mL (≈ 13 µM)
S. aureus ATCC 29213 [5]
  MIC: 8 µg/mL (≈ 13 µM)
C. difficile 132 (RT027) [6]
  MIC: > 128 µg/mL
P. aeruginosa ATCC 27853
  MIC: > 32 µg/mL
E. coli ATCC 25922 [7]
  MIC: 128 µg/mL (≈ 208 µM)
Human erythrocytes; Table 1, lysis of human erythrocytes
  HC50: >32 µg/mL
Human erythrocytes; Table S1, footnote says lysis of sheep erythrocytes
  HC50: > 32 µg/mL
E. coli ATCC 25922 [8]; Escherichia coli, ATCC25922, Table S1
  MIC: 32 µg/mL (≈ 52 µM)
E. coli ATCC 25922 [8]; Table S1
  MIC E. coli ATCC 25922: > 32 µg/mL
C. difficile ATCC 700057
  MIC: 128 µg/mL (≈ 208 µM)
S. pneumoniae ATCC 49619 [9]; Streptococcus pneumoniae, ATCC49619, read-out: MIC S. pneumoniae ATCC 49619
  MIC: 16 µg/mL (≈ 26 µM)
S. pneumoniae ATCC 49619 [9]
  MIC S. pneumoniae ATCC 49619: 4 µg/mL (≈ 6.51 µM)
[10]
  MIC: > 32 µg/mL
S. aureus ATCC 43300 [11]; Staphylococcus aureus, read-out: MIC S. aureus ATCC 43300
  MIC: 16 µg/mL (≈ 26 µM)
S. aureus ATCC 43300 [11]
  MIC S. aureus ATCC 43300: 8 µg/mL (≈ 13 µM)
C. albicans ATCC 90028; Candida albicans, ATCC90028, Table S1
  MIC: 32 µg/mL (≈ 52 µM)
C. albicans ATCC 90028; Table S1
  MIC C. albicans ATCC 90028: > 32 µg/mL

## CC(C)CCOC(=O)[C@H](CC(C)C)NC(=O)[C@@H](CCCNC(=N)N)NC(=O)[C@@H](CCCCN)NC(=O)COc1ccc2ccccc2c1-c1c(OCCC(C)C)ccc2ccccc12 [Compound 1]
[12]
  appearance in the solubility assay: homogenous suspension
  SR = solubility ratio relative to that of compound 1: 1
E. coli ATCC 25922 [13]
  MIC E. coli ATCC 25922: 16 µg/mL (≈ 18.1 µM)
C. difficile [14]
  MIC against C. difficile: 8 µg/mL (≈ 9.07 µM)
E. faecalis ATCC 29212 [15]
  MIC E. faecalis ATCC 29212: 2 µg/mL (≈ 2.27 µM)
S. aureus ATCC 29213 [16]
  MIC S. aureus ATCC 29213: 2 µg/mL (≈ 2.27 µM)
[17]
  MIC C. difficile strain M7404 (RT027): 8 ^g μg/mL
[18]
  MIC C. difficile strain R20291 (RT207): 8 ^h μg/mL
S. pneumoniae ATCC 49619 [19]
  MIC S. pneumoniae ATCC 49619: 2 µg/mL (≈ 2.27 µM)

## CC(C)CCOc1ccc2ccccc2c1-c1c(OCc2cn(C[C@@H](CCCCN)NC(=O)[C@@H](CCCNC(=N)N)NC(=O)CCc3ccccc3)nn2)ccc2ccccc12 [Compound 2]
[12]
  appearance in the solubility assay: homogenous suspension
  SR = solubility ratio relative to that of compound 1: 3
E. coli ATCC 25922 [13]
  MIC E. coli ATCC 25922: 8 µg/mL (≈ 9.52 µM)
C. difficile [14]
  MIC against C. difficile: 8 µg/mL (≈ 9.52 µM)
S. aureus ATCC 43300 [20]
  MIC S. aureus ATCC 43300: 2 µg/mL (≈ 2.38 µM)
HEK293 cells [21]
  CC50: 27.4 µg/mL (≈ 32.6 µM)
E. faecalis ATCC 29212 [15]
  MIC E. faecalis ATCC 29212: 4 µg/mL (≈ 4.76 µM)
S. aureus ATCC 29213 [16]
  MIC S. aureus ATCC 29213: 4 µg/mL (≈ 4.76 µM)
C. difficile 132 (RT027) [22]
  MIC C. difficile 132 (RT027): 32 µg/mL (≈ 38.1 µM)
S. aureus NCTC 10442 [23]
  MIC S. aureus NCTC 104422: 4 µg/mL (≈ 4.76 µM)
C. difficile [24]
  survival rate at 24 h: 50%
Sheep erythrocytes; Table 2 HC50 column, footnote i, sheep erythrocytes
  % hemolysis at 50 µg/mL: 94% ^i
S. pneumoniae ATCC 49619 [19]
  MIC S. pneumoniae ATCC 49619: 4 µg/mL (≈ 4.76 µM)

## CC(C)CCOc1ccc2ccccc2c1-c1c(OCC(=O)N[C@H](CCCNC(=N)N)Cn2cc(-c3ccccc3)nn2)ccc2ccccc12 [Compound 3]
[12]
  appearance in the solubility assay: flocculation
  SR = solubility ratio relative to that of compound 1: 1
[12]; precipitation
  solubility during preparation in a 10% DMSO solution: poor solubility
E. coli ATCC 25922 [13]
  MIC E. coli ATCC 25922: >128 µg/mL
C. difficile [14]
  MIC against C. difficile: 8 µg/mL (≈ 11.7 µM)
E. faecalis ATCC 29212 [15]
  MIC E. faecalis ATCC 29212: 4 µg/mL (≈ 5.85 µM)
S. aureus ATCC 29213 [16]
  MIC S. aureus ATCC 29213: 2 µg/mL (≈ 2.92 µM)
[17]
  MIC C. difficile strain M7404 (RT027): 8 ^g μg/mL
S. aureus NCTC 10442 [23]
  MIC S. aureus NCTC 104422: 2 µg/mL (≈ 2.92 µM)
[18]
  MIC C. difficile strain R20291 (RT207): 8 ^h μg/mL
Sheep erythrocytes; Figure 1
  Haemolysis: 86%
Sheep erythrocytes; in words
  in vitro hemolytic activity: high
S. pneumoniae ATCC 49619 [19]
  MIC S. pneumoniae ATCC 49619: 8 µg/mL (≈ 11.7 µM)

From paper PMC8388771, “Cationic Peptidomimetic Amphiphiles Having a N-Aryl- or N-Naphthyl-1,2,3-Triazole Core Structure Targeting Clostridioides (Clostridium) difficile: Synthesis, Antibacterial Evaluation, and an In Vivo C. difficile Infection Model” (Antibiotics, 2021)
